# Test results published in patent publication US20020051978A1, “Methods and compositions for the identification, assessment, prevention and therapy of human cancers” (priority 2000, published 2002).
# Values joined by “and” are separate entries in the source; they are usually repeats but may differ in a detail not shown here. Equal entries are not always repeated. Where two headings read alike, the source gives them in different places.
# Tested on: 60 cancer cell lines (NCI 60 cancer cell line series)
# Experiment: NCI-DTP in vitro cancer screen, sulforhodamine B (SRB) growth inhibition, 48 hour exposure
# Type: cell-based, human
# Experimental: Cancer Cell Line Preparation. Sixty cancer cell lines were obtained from the National Cancer Institute Developmental Therapeutics Program (NCI-DTP). Procedures for growing cells and testing compounds have been described previously (Scudiero et al., Cancer Res. 1988, 48:4827-4833; Stinson et al., Anticancer Res.; Myers et al., Electrophoresis 1997, 18:647-653). Cells are plated on day 0 at a density individualized for each cell line so that they will generally be sub-confluent at the end of the assay period. On day 1, a compound is added in the format for a duplicate-well, 5-dose, ten-fold interval dose response study.
# No-drug, no-cell and no-growth controls are included. On day 3 the cells are processed for staining with sulforhodamine B (SRB), which reflects the amount of cell mass present at the end of a 48 hour exposure to the test agent. From dose response curves based on the SRB data, various parameters can be determined. The one used in the present study is the G15o, defined as the concentration of compound required to inhibit growth of the cell line by 50%. More precisely, the quantity used in the calculation to be described is the potency measure -log{GI50}.
# Activity database (A). Table IA, consisting of the growth inhibition (GI5o) values for the 60 cell lines and 24 compounds, was created from the NCI-DTP in vitro cancer screen database. This subset of compounds was selected from the larger 23,000 compound database available from the DTP. The compounds were selected on the basis of their known mechanism of action and chemical structure. The average potency—log{GI50} was extracted from the comma-delimited text files available through the Web at http://www.nci.nih.gov/intra/lmp/jnwbio.htmrl. Subsequently, these log{GI5o} values were inspected manually and classified as indicating either Low, Medium or High sensitivity to each compound.
smiles,measurement,setting,value
COc1cccc2c1C(=O)c1c(O)c3c(c(O)c1C2=O)C[C@@](O)(C(=O)CO)C[C@@H]3O[C@H]1C[C@H](N)C[C@H](C)O1 [Deoxydoxorubicin],"classification of cell line as Low(1), Medium(2) or High(3) sensitivity to compound",Breast BT-549 (CL5013),2
same,"classification of cell line as Low(1), Medium(2) or High(3) sensitivity to compound",Breast MCF7/ADRr (CL5002),1
same,"classification of cell line as Low(1), Medium(2) or High(3) sensitivity to compound",Breast MDA-N CL5012,2
same,"classification of cell line as Low(1), Medium(2) or High(3) sensitivity to compound",CNS SF-268 CL12014,2
same,"classification of cell line as Low(1), Medium(2) or High(3) sensitivity to compound",CNS SF-295 CL12015,2
same,"classification of cell line as Low(1), Medium(2) or High(3) sensitivity to compound",CNS SF-539 CL12016,2
same,"classification of cell line as Low(1), Medium(2) or High(3) sensitivity to compound",CNS SNB-19 (CL12002),2
same,"classification of cell line as Low(1), Medium(2) or High(3) sensitivity to compound",CNS SNB-75(I) CL12005,2
same,"classification of cell line as Low(1), Medium(2) or High(3) sensitivity to compound",CNS U251(I) CL12009,2
same,"classification of cell line as Low(1), Medium(2) or High(3) sensitivity to compound",Colon COLO-250 CL4010,2
same,"classification of cell line as Low(1), Medium(2) or High(3) sensitivity to compound",Colon HCT-15 CL4015,1
same,"classification of cell line as Low(1), Medium(2) or High(3) sensitivity to compound",Colon HT29(I) CL4001,2
same,"classification of cell line as Low(1), Medium(2) or High(3) sensitivity to compound",Colon KM12 (CL4017),2
same,"classification of cell line as Low(1), Medium(2) or High(3) sensitivity to compound",Leukemia CCRF-CEM(I) (CL7003),2
same,"classification of cell line as Low(1), Medium(2) or High(3) sensitivity to compound",Leukemia K562(I) CL7005,2
same,"classification of cell line as Low(1), Medium(2) or High(3) sensitivity to compound",Leukemia RPMI-8226(I) (CL7010),2
same,"classification of cell line as Low(1), Medium(2) or High(3) sensitivity to compound",Leukemia SR CL7019,3
same,"classification of cell line as Low(1), Medium(2) or High(3) sensitivity to compound",Melanoma LOX IMVI CL10001,2
same,"classification of cell line as Low(1), Medium(2) or High(3) sensitivity to compound",Melanoma M14 (CL10014),2
same,"classification of cell line as Low(1), Medium(2) or High(3) sensitivity to compound",Melanoma MALME-3M CL10002,2
same,sensitivity class NSCLC NCI-H23(I) CL1001,"cell line NSCLC NCI-H23(I), CL1001",2
same,sensitivity class NSCLC NCI-H522 CL1003,"cell line NSCLC NCI-H522, CL1003",2
same,sensitivity class Ovarian IGROV1 CL6010,"cell line Ovarian IGROV1, CL6010",2
same,sensitivity class Ovarian OVCAR-3 CL6001,"cell line Ovarian OVCAR-3, CL6001",2
same,sensitivity class Ovarian OVCAR-4 CL6002,"cell line Ovarian OVCAR-4, CL6002",2
same,sensitivity class Ovarian OVCAR-8 CL6005,"cell line Ovarian OVCAR-8, CL6005",2
same,sensitivity class Ovarian SK-OV-3 CL6011,"cell line Ovarian SK-OV-3, CL6011",2
same,sensitivity class Prostate DU-145 CL11003,"cell line Prostate DU-145, CL11003",2
same,sensitivity class Prostate PC-3(I) CL11001,"cell line Prostate PC-3(I), CL11001",2
same,sensitivity class Renal A498 CL9013,"cell line Renal A498, CL9013",2
same,sensitivity class Renal SN12C CL9008,"cell line Renal SN12C, CL9008",2
same,sensitivity class Renal TK10 CL9024,"cell line Renal TK10, CL9024",1
same,sensitivity class Renal UO-31 CL9004,"cell line Renal UO-31, CL9004",1
same,3 # of High,number of the 60 cell lines classified High (3) sensitivity,7
"CC(=O)O[C@H]1C(=O)[C@@]2(C)[C@H]([C@H](OC(=O)c3ccccc3)[C@]3(O)C[C@H](OC(=O)[C@H](O)[C@@H](NC(=O)c4ccccc4)c4ccccc4)C(C)=C1C3(C)C)[C@]1(OC(C)=O)CO[C@@H]1C[C@@H]2O [TAXOL, paclitaxel, reference compound]","classification of cell line as Low(1), Medium(2) or High(3) sensitivity to compound",,2 and 1 and 3
same,sensitivity class NSCLC NCI-H23(I) CL1001,,2
same,sensitivity class NSCLC NCI-H332M CL1017,,2
same,sensitivity class Ovarian IGROV1 CL6010,,2
same,sensitivity class Ovarian OVCAR-4 CL6002,,1
same,sensitivity class Ovarian OVCAR-8 CL6005,,2
same,sensitivity class Ovarian SK-OV-3 CL6011,,2
same,sensitivity class Prostate DU-145 CL11003,,2
same,sensitivity class Prostate PC-3(I) CL11001,,2
same,sensitivity class Renal 786-O CL9018,,2
same,sensitivity class Renal ACHN CL9023,,1
same,sensitivity class Renal CAKI-1 CL9015,,1
same,sensitivity class Renal RXF-393 CL9016,,2
same,sensitivity class Renal SN12C CL9008,,2
same,sensitivity class Renal UO-31 CL9004,,1
same,"sensitivity class of the cell line to the compound (1 Low, 2 Medium, 3 High)",,1 and 3 and 2
